According to patent US20150291565A1, “INDOLE COMPOUNDS AND THEIR USE AS ANTIMICROBIALS” (Memorial Sloan-Kettering Cancer Center, priority 2012, published 2015):
Values after ≈ are worked out from the molar mass of the structure shown. Where two headings read alike, the source gives them in different places.

Assays:
[1] = system: S. pneumoniae ATCC 6301 (PSSP); test: Broth dilution MIC, S. pneumoniae ATCC 6301; type: cell-based; details: Streptococcus pneumoniae
C. albicans ATCC 14053 = test: Broth dilution MIC, C. albicans ATCC 14053; type: cell-based; details: Candida albicans, ATCC14053; Table 1; range 64 down to 0.12 μg/ml
Experimental: In vitro Anti-bacterial & Anti-fungal Activity Assay: All test compounds were prepared as 6.4 mg/ml stock solutions in DMSO and further diluted according to the NCCLS M7-A6 (Page 5) document with sterile water or appropriate diluent. A working stock of 256 μg/ml was used to do 1:2 serial dilutions in 96-well plates. […] The inoculums were prepared by making a direct sterile water suspension of isolated colonies from 18 to 24 hr agar plates for all organisms (Mueller Hinton, Blood Agar or SDA plates). Each bacterial suspension was adjusted to read between 0.09 and 0.11 absorbance at 620 nm. […] These were further diluted 1/100 in appropriate broth for inoculating the 96-well plates. The C. albicans suspension was adjusted to read between 70 and 75% Transmittance at 530 nm and then diluted 1/500 in RPMI+MOPS broth. All aerobic bacterial and fungal plates were incubated for 18 hrs. at 35° C. […] Plates were read using a Beckman Automated Plate Reader at 650 nm. Readings were confirmed by visual examination of plates. (See Table 1, Table 2, Table 3, and Table 4). […] It is important to note that positive results against C. albicans are often indicative of broad spectrum antifungal activity, while negative results are not necessarily conclusory of a lack of activity against other fungus.

[2] = system: E. faecium ATCC 700221 (VRE); test: Broth dilution MIC, E. faecium ATCC 700221; type: cell-based
MRSA = test: Disk diffusion assay, zone of inhibition, MRSA; type: cell-based, Staphylococcus aureus; details: disk diffusion zone of inhibition
[3] = system: E. faecalis ATCC 29212 (VRE); test: Broth dilution MIC, E. faecalis ATCC 29212; type: cell-based
[4] = system: S. aureus ATCC 33591 (MRSA); test: Broth dilution MIC, S. aureus ATCC 33591; type: cell-based; details: for MIC: Staphylococcus aureus
E. coli ECM 1694 = test: Broth dilution MIC, E. coli ECM 1694; type: cell-based; details: Escherichia coli
E. coli ATCC 25922 = test: Broth dilution MIC, E. coli ATCC 25922; type: cell-based; details: Escherichia coli
P. aeruginosa ATCC 9027 = test: Broth dilution MIC, P. aeruginosa ATCC 9027; type: cell-based; details: Pseudomonas aeruginosa
[5] = system: S. aureus ATCC 29213 (MSSA); test: Broth dilution MIC, S. aureus ATCC 29213; type: cell-based; details: Staphylococcus aureus
K. pneumoniae ATCC 13883 = test: Broth dilution MIC, K. pneumoniae ATCC 13883; type: cell-based; details: Klebsiella pneumoniae
S. aureus BAA-39 (MDR) = test: Broth dilution MIC, S. aureus BAA-39; type: cell-based; details: for MIC: Staphylococcus aureus, BAA39
K. pneumoniae ATCC 51503 = test: Broth dilution MIC, K. pneumoniae ATCC 51503; type: cell-based; details: Klebsiella pneumoniae
E. faecium CT-26 = test: Broth dilution MIC, E. faecium CT-26; type: cell-based; details: Enterococcus faecium
[6] = system: S. pneumoniae ATCC 700674 (PRSP); test: Broth dilution MIC, S. pneumoniae ATCC 700674; type: cell-based; details: Streptococcus pneumoniae
M. smegmatis (mc2155) = test: Disk diffusion assay, zone of inhibition, M. smegmatis; type: cell-based; details: disk diffusion zone of inhibition
E. coli (ATCC 25922) = test: Septicemia survival model in neutropenic CD1 mice, E. coli; type: in vivo; details: 10 mg/kg BID SC
[7] = ATCC6301, Table 1, range 64 down to 0.12 μg/ml, read-out: MIC S. pneumoniae ATCC 6301
[8] = ATCC6301, Table 2, broth dilution MIC in ug/ml, read-out: MIC S pneumonia ATCC 6301 PSSP
[9] = Enterococcus faecium, Table 1, range 64 down to 0.12 μg/ml, read-out: MIC E. faecium ATCC 700221
[10] = Table 2, broth dilution MIC in ug/ml, read-out: MIC E faecium ATCC 700221 VRE
[11] = Enterococcus faecalis, Table 1, range 64 down to 0.12 μg/ml, read-out: MIC E. faecalis ATCC 29212
[12] = Table 2, broth dilution MIC in ug/ml, read-out: MIC E faecalis ATCC 29212 VRE
[13] = Table 1, range 64 down to 0.12 μg/ml, read-out: MIC S. aureus ATCC 33591
[14] = Table 2, broth dilution MIC in ug/ml, read-out: MIC S aureus ATCC 33591 MRSA
[15] = ECM1694, Table 1, range 64 down to 0.12 μg/ml, read-out: MIC E. coli ECM 1694
[16] = ECM1694, Table 2, broth dilution MIC in ug/ml, read-out: MIC E. coli ECM 1693
[17] = ATCC 25921 / ATCC 25922, Table 2, broth dilution MIC in ug/ml, read-out: MIC E. coli ATCC 25921
[18] = ATCC25922, Table 1, range 64 down to 0.12 μg/ml, read-out: MIC E. coli ATCC 25922
[19] = ATCC 9026 / ATCC 9027, Table 2, broth dilution MIC in ug/ml, read-out: MIC P aeruginosa ATCC 9026
[20] = ATCC9027, Table 1, range 64 down to 0.12 μg/ml, read-out: MIC P. aeruginosa ATCC 9027
[21] = Table 1, range 64 down to 0.12 μg/ml, read-out: MIC S. aureus ATCC 29213
[22] = Table 2, broth dilution MIC in ug/ml, read-out: MIC S aureus ATCC 29213 MSSA
[23] = ATCC13883, Table 1, range 64 down to 0.12 μg/ml, read-out: MIC K. pneumoniae ATCC 13883
[24] = ATCC13883, Table 2, broth dilution MIC in ug/ml, read-out: MIC K pneumonia ATCC 13883
[25] = Table 1, range 64 down to 0.12 μg/ml, read-out: MIC S. aureus BAA-39
[26] = Table 2, broth dilution MIC in ug/ml, read-out: MIC S aureus BAA-39 MDR
[27] = ATCC51503, Table 1, range 64 down to 0.12 μg/ml, read-out: MIC K. pneumoniae ATCC 51503
[28] = ATCC51503, Table 2, broth dilution MIC in ug/ml, read-out: MIC K pneumonia ATCC 51503
[29] = CT26, Table 1, range 64 down to 0.12 μg/ml, read-out: MIC E. faecium CT-26
[30] = CT26, Table 2, broth dilution MIC in ug/ml, read-out: MIC E faecium CT-25
[31] = Table 1, range 64 down to 0.12 μg/ml, read-out: MIC S. pneumoniae ATCC 700674
[32] = Table 2, broth dilution MIC in ug/ml, read-out: MIC S pneumonia ATCC 700674 PRSP

MIC [1, 7] [µg/mL]	MIC [1, 8] [µg/mL]	MIC (C. albicans ATCC 14053) [µg/mL]	MIC [2, 9] [µg/mL]	MIC [2, 10] [µg/mL]	MIC [3, 11] [µg/mL]	MIC [3, 12] [µg/mL]	MIC [4, 13] [µg/mL]	MIC [4, 14] [µg/mL]	MIC (E. coli ECM 1694; [15]) [µg/mL]	MIC (E. coli ECM 1694; [16]) [µg/mL]	MIC (E. coli ATCC 25922; [17]) [µg/mL]	MIC (E. coli ATCC 25922; [18]) [µg/mL]	MIC (P. aeruginosa ATCC 9027; [19]) [µg/mL]	MIC (P. aeruginosa ATCC 9027; [20]) [µg/mL]	MIC [5, 21] [µg/mL]	MIC [5, 22] [µg/mL]	MIC (K. pneumoniae ATCC 13883; [23]) [µg/mL]	MIC (K. pneumoniae ATCC 13883; [24]) [µg/mL]	Compound	Zone Size MRSA (MRSA) [mm]	further results
≤ 0.12	0.06 (≈ 0.17 µM)	> 64	0.25 (≈ 0.707 µM)	0.25 (≈ 0.707 µM)	0.5 (≈ 1.41 µM)	0.5 (≈ 1.41 µM)	1 (≈ 2.83 µM)	1 (≈ 2.83 µM)	≤ 0.12	0.12 (≈ 0.34 µM)	1 (≈ 2.83 µM)	1 (≈ 2.83 µM)	64 (≈ 181 µM)	> 64	2 (≈ 5.66 µM)	1 (≈ 2.83 µM)	> 64	64 (≈ 181 µM)	c1cncc(Nc2ccc(-c3cc4ccc(C5=NCCN5)cc4[nH]3)cc2)c1 [SKI-4]	14	MIC ([1]; ATCC6301, Table 3, starting at 4 μg/ml, read-out: MIC S. pneumoniae ATCC 6301): 0.06 µg/mL (≈ 0.17 µM); MIC ([2]; Enterococcus faecium, Table 3, starting at 4 μg/ml, read-out: MIC E. faecium ATCC 700221): 0.25 µg/mL (≈ 0.707 µM); MIC E. faecalis ATCC 29212 ([3]; Table 3, starting at 4 μg/ml): 0.5 µg/mL (≈ 1.41 µM); MIC S. aureus ATCC 33591 ([4]; Table 3, starting at 4 μg/ml): 1 µg/mL (≈ 2.83 µM); MIC (E. coli ECM 1694; ECM1694, Table 3, starting at 4 μg/ml, read-out: MIC E. coli ECM 1694): 0.12 µg/mL (≈ 0.34 µM); MIC ([5]; Table 3, starting at 4 μg/ml, read-out: MIC S. aureus ATCC 29213): 1 µg/mL (≈ 2.83 µM); MIC (S. aureus BAA-39 (MDR); [25]): 1 µg/mL (≈ 2.83 µM); MIC (S. aureus BAA-39 (MDR); [26]): 1 µg/mL (≈ 2.83 µM); MIC S. aureus BAA-39 (S. aureus BAA-39 (MDR); Table 3, starting at 4 μg/ml): 1 µg/mL (≈ 2.83 µM); MIC (K. pneumoniae ATCC 51503; [27]): > 64 µg/mL; MIC (K. pneumoniae ATCC 51503; [28]): 64 µg/mL (≈ 181 µM); MIC (E. faecium CT-26; [29]): 0.25 µg/mL (≈ 0.707 µM); MIC (E. faecium CT-26; [30]): 0.25 µg/mL (≈ 0.707 µM); MIC (E. faecium CT-26; CT26, Table 3, starting at 4 μg/ml, read-out: MIC E. faecium CT-26): 0.25 µg/mL (≈ 0.707 µM); MIC [6, 31]: 0.5 µg/mL (≈ 1.41 µM); MIC [6, 32]: 0.5 µg/mL (≈ 1.41 µM); MIC ([6]; Table 3, starting at 4 μg/ml, read-out: MIC S. pneumoniae ATCC 700674): 0.5 µg/mL (≈ 1.41 µM); Zone Size M. smegmatis (M. smegmatis (mc2155)): 27.6 mm
32 (≈ 89 µM)	32 (≈ 89 µM)	> 64	> 64	64 (≈ 178 µM)	> 64	64 (≈ 178 µM)	8 (≈ 22.3 µM)	8 (≈ 22.3 µM)	4 (≈ 11.1 µM)	4 (≈ 11.1 µM)	32 (≈ 89 µM)	32 (≈ 89 µM)	64 (≈ 178 µM)	> 64	8 (≈ 22.3 µM)	8 (≈ 22.3 µM)	> 64	64 (≈ 178 µM)	c1cc(-c2cc3ccc(C4=NCCN4)cc3[nH]2)ccc1NC1CCNCC1 [SKI-6]	15	MIC (S. aureus BAA-39 (MDR); [25]): 8 µg/mL (≈ 22.3 µM); MIC (S. aureus BAA-39 (MDR); [26]): 8 µg/mL (≈ 22.3 µM); MIC (K. pneumoniae ATCC 51503; [27]): > 64 µg/mL; MIC (K. pneumoniae ATCC 51503; [28]): 64 µg/mL (≈ 178 µM); MIC (E. faecium CT-26; [29]): 64 µg/mL (≈ 178 µM); MIC (E. faecium CT-26; [30]): 64 µg/mL (≈ 178 µM); MIC [6, 31]: > 64 µg/mL; MIC [6, 32]: 64 µg/mL (≈ 178 µM); Zone Size M. smegmatis (M. smegmatis (mc2155)): 16.3 mm
4 (≈ 10.7 µM)	4 (≈ 10.7 µM)	32 (≈ 85.7 µM)	16 (≈ 42.8 µM)	16 (≈ 42.8 µM)	16 (≈ 42.8 µM)	16 (≈ 42.8 µM)	2 (≈ 5.35 µM)	2 (≈ 5.35 µM)	0.25 (≈ 0.669 µM)	0.25 (≈ 0.669 µM)	2 (≈ 5.35 µM)	2 (≈ 5.35 µM)	64 (≈ 171 µM)	> 64	2 (≈ 5.35 µM)	2 (≈ 5.35 µM)	> 64	64 (≈ 171 µM)	CN1CCC(Nc2ccc(-c3cc4ccc(C5=NCCN5)cc4[nH]3)cc2)CC1 [SKI-7]	19	MIC (S. aureus BAA-39 (MDR); [25]): 2 µg/mL (≈ 5.35 µM); MIC (S. aureus BAA-39 (MDR); [26]): 2 µg/mL (≈ 5.35 µM); MIC (K. pneumoniae ATCC 51503; [27]): > 64 µg/mL; MIC (K. pneumoniae ATCC 51503; [28]): 64 µg/mL (≈ 171 µM); MIC (E. faecium CT-26; [29]): 16 µg/mL (≈ 42.8 µM); MIC (E. faecium CT-26; [30]): 16 µg/mL (≈ 42.8 µM); MIC [6, 31]: 32 µg/mL (≈ 85.7 µM); MIC [6, 32]: 32 µg/mL (≈ 85.7 µM); Zone Size M. smegmatis (M. smegmatis (mc2155)): 30 mm
–	–	–	–	–	–	–	–	–	–	–	–	–	–	–	–	–	–	–	Gentamicin [reference compound]	–	Percent Survival Day 1 (E. coli (ATCC 25922)): 100%; Percent Survival Day 2 (E. coli (ATCC 25922)): 100%; Percent Survival Day 3 (E. coli (ATCC 25922)): 80%; Percent Survival Day 4 (E. coli (ATCC 25922)): 60%; Percent Survival Day 5 (E. coli (ATCC 25922)): 60%; Percent Survival Day 6 (E. coli (ATCC 25922)): 60%; Percent Survival Day 7 (E. coli (ATCC 25922)): 60%
